How the values were obtained:
[1] = Ratio of drug uptake in 129/C57BL/6J mouse brain to plasma at 30 mg/kg, po after 2 hrs by UHPLC/MS/MS analysis; format: ADME, organism-based; details: brain and plasma, read-out: BPR
physchem = details: 1-octanol/PBS, pH 7.4

Kp at 2 h [1] | logD at 1 h (physchem) | SMILES
0.28 | 3.4 | COc1ccc(F)c([C@H](C)Nc2cc(F)c(S(=O)(=O)Nc3cscn3)cc2Cl)c1
 | 1.5 | C[C@H](Nc1cc(F)c(S(=O)(=O)Nc2cscn2)cc1Cl)c1cc(CN2CCC2)ccc1F
 | 1.4 | O=S(=O)(Nc1cscn1)c1cc(Cl)c(NCc2cc(CN3CCC3)ccc2F)cc1F
